Assay results reported in ChEMBL document CHEMBL1201862, “PubChem BioAssay data set” (2004).
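Interpolation was linear, between the two tested concentrations surrounding the appropriate level; five concentrations were tested over 48 hours in 96-well plates. Here, GI50 denotes the concentration required for 50% inhibition of growth.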 The source made the active and inactive calls. No stated cut-off is given here; in the data, active = GI50 up to about 1.1 µM and inactive = higher.

What was measured:
Experiment in all cases: DTP human tumour cell line panel, 48 h
BT-549 = test system: BT-549
CAKI-1 = test system: CAKI-1
HCT-15 = test system: HCT-15
HT-29 = test system: HT-29
MDA-MB-231 = test system: MDA-MB-231
MDA-MB-435 = test system: MDA-MB-435
OVCAR-3 = test system: OVCAR-3
OVCAR-4 = test system: OVCAR-4
PC-3 = test system: PC-3
RPMI-8226 = test system: RPMI-8226
SF-268 = test system: SF-268
SF-295 = test system: SF-295
SK-MEL-2 = test system: SK-MEL-2
SK-MEL-5 = test system: SK-MEL-5
SK-OV-3 = test system: SK-OV-3
SN12C = test system: SN12C
SR = test system: SR
SW-620 = test system: SW-620
U-251 = test system: U-251
UACC-257 = test system: UACC-257

| Structure (SMILES) | GI50 (BT-549) | GI50 (CAKI-1) | GI50 (HCT-15) [µM] | GI50 (HT-29) | GI50 (MDA-MB-231) | GI50 (MDA-MB-435) | GI50 (OVCAR-3) | GI50 (OVCAR-4) | GI50 (PC-3) | GI50 (RPMI-8226) | GI50 (SF-268) | GI50 (SF-295) | GI50 (SK-MEL-2) | GI50 (SK-MEL-5) | GI50 (SK-OV-3) | GI50 (SN12C) | GI50 (SR) | GI50 (SW-620) | GI50 (U-251) | GI50 (UACC-257) |
| --- | --- | --- | --- | --- | --- | --- | --- | --- | --- | --- | --- | --- | --- | --- | --- | --- | --- | --- | --- | --- |
| Cc1ccc(O)c(C2=CC(c3cccc(Br)c3)SC(=N)N2)c1 (stereo not given) | 29.8 µM (inactive) | 28.4 µM (inactive) | 14.5 | 33.7 µM (inactive) | 25.8 µM (inactive) | 18.7 µM (inactive) | 39.5 µM (inactive) | 28.9 µM (inactive) | 26.1 µM (inactive) | 18 µM (inactive) | 28.8 µM (inactive) | 21.2 µM (inactive) | 18.2 µM (inactive) | 17 µM (inactive) | 28.8 µM (inactive) | 20.8 µM (inactive) | 17.1 µM (inactive) | 28.4 µM (inactive) | 17.5 µM (inactive) | 20.1 µM (inactive) |
| CC(C)=CCc1cc(/C=C/C(=O)O)cc(CC=C(C)C)c1O [ARTEPILLIN] | > 100 µM (inactive) | > 100 µM (inactive) | 76 | 47.3 µM (inactive) | > 100 µM (inactive) | > 100 µM (inactive) | > 100 µM (inactive) | > 100 µM (inactive) | > 100 µM (inactive) | 76.6 µM (inactive) | > 100 µM (inactive) | > 100 µM (inactive) | > 100 µM (inactive) | > 100 µM (inactive) | > 100 µM (inactive) | > 100 µM (inactive) | > 100 µM (inactive) | > 100 µM (inactive) | > 100 µM (inactive) | > 100 µM (inactive) |
| COc1ccc(C(c2ccc3c(c2)OCO3)N2C(=O)CCC2C(=O)O)cc1 (stereo not given) | > 100 µM (inactive) | > 100 µM (inactive) | > 100 | > 100 µM (inactive) | > 100 µM (inactive) | > 100 µM (inactive) | > 100 µM (inactive) | > 100 µM (inactive) | > 100 µM (inactive) | > 100 µM (inactive) | > 100 µM (inactive) | > 100 µM (inactive) | > 100 µM (inactive) | > 100 µM (inactive) | > 100 µM (inactive) | > 100 µM (inactive) | > 100 µM (inactive) | > 100 µM (inactive) | > 100 µM (inactive) | > 100 µM (inactive) |
| CN(N=O)C(=O)NNC(=O)N(C)N=O | 91.8 µM (inactive) | > 100 µM (inactive) | 37.9 | > 100 µM (inactive) | > 100 µM (inactive) | > 100 µM (inactive) | > 100 µM (inactive) | > 100 µM (inactive) | 90.6 µM (inactive) | 32.7 µM (inactive) | 38.9 µM (inactive) | 94.6 µM (inactive) | 73.3 µM (inactive) | 67.6 µM (inactive) | > 100 µM (inactive) | > 100 µM (inactive) | 8.81 µM (inactive) | 36.2 µM (inactive) | 52.5 µM (inactive) | > 100 µM (inactive) |
| CC(=O)NC1C(OC(C)C(=O)NC(C(=O)NC(CCC(=O)NCCCNC2c3ccccc3Nc3cccc([N+](=O)[O-])c32)C(N)=O)C(C)C)C(O)C(CO)OC1(C)OCc1ccccc1 (stereo not given) | 1.63 µM (inactive) | 1.33 µM (inactive) | 0.463 | 0.152 µM (active) | 0.54 µM (active) | 0.579 µM (active) | 0.946 µM (active) | 1.78 µM (inactive) | 1.37 µM (inactive) | 0.353 µM (active) | 0.998 µM (active) | 1.62 µM (inactive) | 1.22 µM (inactive) | 0.198 µM (active) | 1.67 µM (inactive) | 0.822 µM (active) | 0.215 µM (active) | 0.291 µM (active) | 1.39 µM (inactive) | 2.33 µM (inactive) |
| CN1CCN([C@H]2C[C@H]3[C@@H]4CC=C5C[C@@H](N6CCCC6)CC[C@]5(C)[C@H]4CC[C@]3(C)[C@H]2O)CC1 | 95.5 µM (inactive) | > 10 µM (inactive) | 38.4 | 8 µM (inactive) | 74.6 µM (inactive) | 26.1 µM (inactive) | > 100 µM (inactive) | > 100 µM (inactive) | 47.9 µM (inactive) | 24.9 µM (inactive) | 32.7 µM (inactive) | 48.4 µM (inactive) | > 100 µM (inactive) | 18.8 µM (inactive) | > 100 µM (inactive) | > 100 µM (inactive) | < 0.01 µM (active) | 33.4 µM (inactive) | 59.2 µM (inactive) | 23.2 µM (inactive) |
| COc1cc2c(c(OC)c1OC)C(=O)[C@@H]1[C@H]2N1C(=O)NCCCl | 80.5 µM (inactive) | 56.8 µM (inactive) | 36.1 | 36 µM (inactive) | > 100 µM (inactive) | 32.6 µM (inactive) | 38.4 µM (inactive) | 52.4 µM (inactive) | 58.2 µM (inactive) | 70 µM (inactive) | 76.9 µM (inactive) | > 100 µM (inactive) | > 100 µM (inactive) | 46.8 µM (inactive) | > 100 µM (inactive) | 54.7 µM (inactive) | 46.2 µM (inactive) | > 100 µM (inactive) | 37.1 µM (inactive) | 79.8 µM (inactive) |
| C[n+]1c(-c2ccc(NC(=O)c3ccc(C(=O)Nc4ccc(-c5cn6ccccc6[n+]5C)cc4)cc3)cc2)cn2ccccc21 | > 100 µM (inactive) | > 100 µM (inactive) | > 100 | > 100 µM (inactive) | > 42.9 µM (inactive) | > 67.3 µM (inactive) | > 100 µM (inactive) | > 100 µM (inactive) | > 100 µM (inactive) | 14.3 µM (inactive) | > 100 µM (inactive) | 47.5 µM (inactive) | > 100 µM (inactive) | 43.1 µM (inactive) | > 100 µM (inactive) | > 66.1 µM (inactive) | 18.5 µM (inactive) | > 100 µM (inactive) | > 73.3 µM (inactive) | > 100 µM (inactive) |
| C[As+](C)(c1ccc(Br)c([N+](=O)[O-])c1)c1ccc(Br)c([N+](=O)[O-])c1 | > 100 µM (inactive) | > 100 µM (inactive) | > 100 | > 100 µM (inactive) | > 100 µM (inactive) | > 100 µM (inactive) | > 100 µM (inactive) | > 100 µM (inactive) | > 100 µM (inactive) | 44.7 µM (inactive) | > 100 µM (inactive) | > 100 µM (inactive) | > 100 µM (inactive) | 9.12 µM (inactive) | > 100 µM (inactive) | > 100 µM (inactive) | > 100 µM (inactive) | > 100 µM (inactive) | > 100 µM (inactive) | > 100 µM (inactive) |
| C=C(C(=O)OC)c1cc2ccccc2n1S(=O)(=O)c1ccccc1 | 1.73 µM (inactive) | 0.82 µM (active) | 1.76 | 2.91 µM (inactive) | 1.98 µM (inactive) | 2.55 µM (inactive) | 3.4 µM (inactive) | 4.82 µM (inactive) | 1.96 µM (inactive) | 1.28 µM (inactive) | 1.84 µM (inactive) | 7.66 µM (inactive) | 2.53 µM (inactive) | 2.14 µM (inactive) | 11.3 µM (inactive) | 2.67 µM (inactive) | 0.815 µM (active) | 2.09 µM (inactive) | 1.92 µM (inactive) | 4.86 µM (inactive) |
| O=C1OC(c2ccccc2)=N/C1=C\c1ccc(Cl)cc1 | > 100 µM (inactive) | > 100 µM (inactive) | > 100 | > 100 µM (inactive) | > 100 µM (inactive) | > 100 µM (inactive) | > 100 µM (inactive) | > 100 µM (inactive) | > 100 µM (inactive) | > 100 µM (inactive) | > 100 µM (inactive) | > 100 µM (inactive) | > 100 µM (inactive) | > 100 µM (inactive) | > 100 µM (inactive) | > 100 µM (inactive) | > 100 µM (inactive) | > 100 µM (inactive) | > 100 µM (inactive) | > 100 µM (inactive) |
| CCOC(=O)c1c(N2CCOCC2)[nH]c(=O)c(C(c2c(O)c(C(=O)OCC)c(N3CCOCC3)[nH]c2=O)C(C)C)c1O | > 100 µM (inactive) | > 100 µM (inactive) | > 100 | > 100 µM (inactive) | > 100 µM (inactive) | > 100 µM (inactive) | > 100 µM (inactive) | > 100 µM (inactive) | > 100 µM (inactive) | > 100 µM (inactive) | > 100 µM (inactive) | 58.3 µM (inactive) | > 100 µM (inactive) | > 100 µM (inactive) | 86.5 µM (inactive) | > 100 µM (inactive) | > 100 µM (inactive) | > 100 µM (inactive) | > 100 µM (inactive) | > 100 µM (inactive) |
| O=C1C(c2c(O)[nH]c3ccc(S(=O)(=O)O)cc23)=Nc2ccccc21 | > 100 µM (inactive) | > 100 µM (inactive) | > 100 | > 100 µM (inactive) | > 100 µM (inactive) | > 100 µM (inactive) | > 100 µM (inactive) | 94.4 µM (inactive) | > 100 µM (inactive) | > 100 µM (inactive) | > 100 µM (inactive) | > 100 µM (inactive) | > 100 µM (inactive) | > 100 µM (inactive) | > 100 µM (inactive) | > 100 µM (inactive) | > 100 µM (inactive) | > 100 µM (inactive) | > 100 µM (inactive) | > 100 µM (inactive) |
